Data set [1] concerns T. brucei rhodesiense (STIB 900). The experiment in a line: In vitro antitrypanosomal activity against bloodstream forms. It is filed as cell-based. Particulars: Trypanosoma brucei, read-out: T. brucei rhodesiense (STIB 900) IC50. As to the method: Compounds 1–5 were tested for their in vitro activity against bloodstream forms of T. brucei rhodesiense (causative agent of East African HAT).

The target of data set [2] is T1, recombinant TbGAPDH (Trypanosoma brucei brucei, UniProt P22512).
T1 construct: histidine tag (cleaved yes); made in house; host or cells: E. coli BL21 (DE3)
T1 sequence (P22512 whole entry): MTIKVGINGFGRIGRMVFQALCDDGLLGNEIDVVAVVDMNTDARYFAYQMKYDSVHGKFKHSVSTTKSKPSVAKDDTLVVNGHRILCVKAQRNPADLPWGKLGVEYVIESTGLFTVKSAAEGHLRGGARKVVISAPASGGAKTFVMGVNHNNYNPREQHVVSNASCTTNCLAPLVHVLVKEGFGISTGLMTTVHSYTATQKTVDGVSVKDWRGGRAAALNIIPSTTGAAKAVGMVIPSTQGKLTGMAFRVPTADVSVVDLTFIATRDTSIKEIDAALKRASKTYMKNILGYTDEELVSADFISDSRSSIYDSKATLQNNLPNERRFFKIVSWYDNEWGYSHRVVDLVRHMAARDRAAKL
The experiment in a line: TbGAPDH inhibition assay (spectrophotometric, NADH at 340 nm). Type of data set: biochemical. Conditions: for inhibition at 50 µM / % Inhibition at c = 50 µM: 50 µM test compound, n.i. = no inhibition at 50 µM. As for the experimental part:
To experimentally validate the predictions of the in silico screening, a spectrophotometric assay with recombinant TbGAPDH, measuring the increase of NADH during the conversion of 3-phosophoglyceraldehyde into 1,3-bisphosphoglycerate, was used. The increase of absorbance at 340 nm was measured for 1 min after the addition of the substrate. Initially, each test compound was added in a concentration of 50 µM and the slope of the resulting linear plots of absorbance vs. time compared to that of a control recorded in the absence of an inhibitor.
In order to determine the activity of TbGAPDH, a spectrophotometric assay was used as described before. For that purpose, the increasing amount of produced NADH was measured at 340 nm with a Hitachi U-2900 UV-VIS-Spectrophotometer as a linear indicator for the activity of the catalytic protein. The activity determined without the addition of an inhibitor was set to 100%; the measured inhibitions were calculated accordingly. The assay was performed at 30 °C, in a buffer of 0.1 M TEA, 0.1 M glycine and 0.1 M EDTA with varying concentrations of the tested compounds in a total volume of 1 mL containing 7.17 µg TbGAPDH, 1.5 mM NAD^+ and 0.5 mM G-3-P. The tested inhibitors were solved in DMSO, resulting in a final concentration of 0.1%–1% of solvent in the assay solution. […] Typically, 5–7 different concentrations were measured (each of them in triplicate) to determine IC50 values, which were calculated using the software “Prism 3.00” (GraphPad) via nonlinear regression analysis. The measured concentration/effect curves are shown in Supplementary Figures S14–S18.

Data set [3] can be described thus: Cytotoxicity against mammalian cells. Type of data set: cell-based, rat.
Data set [4] has as its system L6 rat skeletal myoblasts. The experiment in a line: Cytotoxicity against mammalian cells. Type of data set: cell-based. Particulars: SI = IC50(cytotoxicity)/IC50(parasite), L6 vs T. brucei rhodesiense.
Data set [5] has as its system TbGAPDH. Briefly: Previously known TbGAPDH inhibitors (literature). It is filed as biochemical, Trypanosoma brucei. Conditions: literature IC50 12 µM compared with IC50 of Compound 2. As to the method: In comparison to previously-known TbGAPDH inhibitors, the IC50 values of our compounds are quite low, so that these hits obtained from in silico screening can be considered quite strong inhibitors of the target enzyme. To our knowledge, the strongest TbGAPDH inhibitor known up to now is a synthetic adenosine derivative with an IC50 of […] [17].

Data set [6] concerns TbGAPDH. Particulars: most active inhibitor of natural origin previously known; cited from earlier work.
Setting [7] is: 30 °C, 1.5 mM NAD+, 0.5 mM G-3-P.
Where [8] appears, read: 30 °C, 1.5 mM NAD+, 0.5 mM G-3-P, 5–7 concentrations in triplicate, nonlinear regression, read-out: IC50 (TbGAPDH inhibition).
The mark [9] stands for this setting: bloodstream forms, mean ± margin of deviation of two independent determinations.
Where [10] appears, read: L6 rat skeletal myoblasts, mean ± margin of deviation of two independent determinations, read-out: Cytotoxicity (L6) IC50.

Entries after “also recorded” stand apart in the source; their conditions may differ. Read-outs that look alike come from different tables or passages of the source.

By IC50 is commonly meant the concentration at which inhibition is half-maximal. A word on the inhibition: it is the drop in the measured response relative to a control, in per cent.

Consider `Nc1nc(N)nc(Nc2ccc([As]3SCC(CO)S3)cc2)n1` (stereo not drawn) [Melarsoprol, reference compound], for which the half-inhibitory concentration (IC50) in data set [1] turned out to be 0.005 ± 0.001 µM.

Turning to `CC(C)=CCc1c2c(c3occ(-c4ccc(O)c(O)c4)c(=O)c3c1O)C=CC(C)(C)O2` [NP-005755], the inhibition at 50 µM in data set [2] (setting [7]) was found to be 44%.

Take `CCCCCCC/C=C/C=C/C(=O)NCCc1ccc(O)cc1` [NP-007496]: the “% Inhibition at c = 50 µM” value in data set [2] (setting [7]) is recorded as “n.i”.

Take `COc1cc(O)c2c(=O)c(-c3c(O)cc(O)c4c(=O)cc(-c5ccc(O)cc5)oc34)c(-c3ccc(O)cc3)oc2c1` [NP-008941]: the “% Inhibition at c = 50 µM” value in data set [2] (setting [7]) was “n.i”.

Turning to `COc1ccc(/C=C/C(=O)c2c(OC)cc(OC)c(CC=C(C)C)c2OC)cc1` [NP-010904], the “% Inhibition at c = 50 µM” value in data set [2] (setting [7]) is “n.i”.

Consider `CC(C)=CCC/C(C)=C/Cc1ccc(O)c(C(=O)c2c(O)cc(C(=O)O)cc2C(=O)O)c1O` [NP-011694 (1)], for which, in data set [2] (setting [7]), the inhibition at 50 µM was above 50%. The IC50 in data set [2] (setting [8]) was determined as 24.6 ± 1.03 µM; in data set [1] (setting [9]), 39.5 ± 3.1 µM; in data set [3] (rat), 50.6 ± 3.8 µM. For the same compound, in data set [4], the “SI (selectivity index)” value worked out at 1.3.

Turning to `CC(C)=CCc1c(O)c2c(c3c1OC(C)(C)C=C3)OCC(c1ccc(O)cc1O)C2=O` (stereo not drawn) [NP-012278], the inhibition at 50 µM in data set [2] (setting [7]) was 24%.

Take `CC(C)=CCc1c(O)c(CC=C(C)C)c2occ(-c3ccc(O)c(O)c3)c(=O)c2c1O` [NP-013070]: the inhibition at 50 µM in data set [2] (setting [7]) was 33%.

Regarding `CC(C)=CCC/C(C)=C/Cc1ccc(O)c(C(=O)c2c(O)cc(C(=O)O)cc2C=O)c1O` [NP-013296 (2)], the values for the IC50 in data set [2] (setting [8]), in data set [1] (setting [9]) and in data set [3] (rat) were 4.73 ± 1.04 µM, 41 ± 0.5 µM and 48.7 ± 3.8 µM, respectively. Further, the “SI (selectivity index)” value in data set [4] was 1.2; in data set [4] (listed as 2), “not significantly selective”.

On to `CCCC(=O)c1c(O)c(C)c(O)c(CC2=C(O)C(C)(C)C(O)=C(C(C)=O)C2=O)c1O` [NP-013330 (3), flavaspidic acid AB], for which the IC50 in data set [2] was determined as 22 ± 1.03 µM; in data set [1] (setting [9]), 17.9 ± 1.6 µM; in data set [3] (setting [10]), 54.2 ± 0.5 µM. Moreover, the “SI (selectivity index)” value in data set [4] is 3.0; in data set [4] (listed as 3), “not significantly selective; also recorded: three”.

For `CC(C)=CCC/C(C)=C/Cc1ccc(O)c(C(=O)c2c(O)cc(C=O)cc2C(=O)O)c1O` [NP-013378 (4)], the IC50 in data set [2] (setting [8]) stood at 6.68 ± 1.04 µM; in data set [1] (setting [9]) it was 6.7 ± 2.2 µM; in data set [3] (rat), 48.9 ± 4.1 µM. In addition, the “SI (selectivity index)” value in data set [4] is 7.3; in data set [4] (listed as 4) it was “seven”.

As for `Oc1cc(O)cc(CCC/C=C\CCCCCCCCCc2cc(O)cc(O)c2)c1` [NP-014428 (5)], the half-maximal inhibitory concentration (IC50) came out at 22.8 ± 1.01 µM in data set [2] (setting [8]), 29.3 ± 6.3 µM in data set [1] (setting [9]) and 15.5 ± 1.8 µM in data set [3] (rat). The “SI (selectivity index)” value in data set [4] is on record as 0.5.

For the compound `O=C(/C=C\c1ccc(O)cc1)NCCCCNC(=O)/C=C/c1ccc(O)cc1` [NP-015973], the “% Inhibition at c = 50 µM” value in data set [2] (setting [7]) is “n.i”.

Take `C/C=C(\NC(=O)CCCCCCCCCCCCCCC(=O)O)C(=O)O` [NP-019430]: the inhibition at 50 µM in data set [2] (setting [7]) was 45%.

Take `COc1cc([C@@H]2c3cc4c(cc3[C@H](O)[C@H]3COC(=O)[C@H]23)OCO4)cc(OC)c1OC` [Podophyllotoxin, reference compound]: the half-maximal inhibitory concentration (IC50) in data set [3] (setting [10]) was found to be 0.019 ± 0.002 µM.

As for `COC(=O)/C=C(\C)CC[C@@]1(C)[C@H](C)CC[C@@]2(C)C(C(=O)O)=CCC[C@H]12` [monomethyl kolavate], the “fold less potent than Compound 2 (TbGAPDH IC50)” value in data set [5] was “about 2.5 fold”. Further, in data set [6], the 50% inhibitory concentration (IC50) is 12 µM.

The record behind these values is publication PMC6332274, “In Silico Identification and in Vitro Activity of Novel Natural Inhibitors of Trypanosoma brucei Glyceraldehyde-3-phosphate-dehydrogenase” (Molecules, 2015).
